Here are results for one compound from BindingDB's records for doi:10.1016/s1074-5521(98)90168-5 (University of California San Francisco, 1998).

For test [1], the target named is T1, Thyroid hormone receptor alpha (Homo sapiens, UniProt P10827).
T1 sequence (P10827 whole entry): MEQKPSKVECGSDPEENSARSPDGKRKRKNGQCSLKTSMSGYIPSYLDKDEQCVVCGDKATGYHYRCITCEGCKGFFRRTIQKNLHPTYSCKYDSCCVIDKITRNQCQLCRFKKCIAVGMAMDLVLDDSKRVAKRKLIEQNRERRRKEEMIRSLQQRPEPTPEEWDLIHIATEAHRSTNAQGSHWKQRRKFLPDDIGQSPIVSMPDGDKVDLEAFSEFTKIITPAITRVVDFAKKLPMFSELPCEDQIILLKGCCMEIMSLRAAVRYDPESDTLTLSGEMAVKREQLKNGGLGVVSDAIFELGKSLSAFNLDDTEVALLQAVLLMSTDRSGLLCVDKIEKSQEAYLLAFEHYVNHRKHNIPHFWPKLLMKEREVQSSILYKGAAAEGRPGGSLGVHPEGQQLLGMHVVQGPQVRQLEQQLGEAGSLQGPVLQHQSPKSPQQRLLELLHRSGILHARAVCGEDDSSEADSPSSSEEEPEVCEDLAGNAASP
As to the kind of experiment: TR Receptor Ligand Binding Assay. The source says:
(§1) Human thyroid hormone receptor alpha and beta (hTR alpha1) and (hTR beta1) were produced using TNT coupled reticulocyte lysate system from Promega.

Test [2] deals with T2, Thyroid hormone receptor beta (Homo sapiens, UniProt P10828).
T2 sequence (P10828 whole entry): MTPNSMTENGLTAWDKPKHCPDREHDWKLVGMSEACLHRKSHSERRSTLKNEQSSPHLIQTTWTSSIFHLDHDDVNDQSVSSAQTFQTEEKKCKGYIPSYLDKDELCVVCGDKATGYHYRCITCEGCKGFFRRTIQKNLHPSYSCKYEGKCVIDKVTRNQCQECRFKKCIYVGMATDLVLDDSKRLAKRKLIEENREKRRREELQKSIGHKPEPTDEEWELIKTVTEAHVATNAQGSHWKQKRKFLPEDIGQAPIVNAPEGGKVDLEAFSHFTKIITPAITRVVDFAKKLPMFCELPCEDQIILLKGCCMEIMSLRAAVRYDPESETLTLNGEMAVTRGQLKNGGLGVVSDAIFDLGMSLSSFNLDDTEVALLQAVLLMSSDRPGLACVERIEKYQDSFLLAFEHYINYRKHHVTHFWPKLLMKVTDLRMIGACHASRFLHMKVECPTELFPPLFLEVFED
Briefly: TR Receptor Ligand Binding Assay.
Excerpt: as §1

Take `Cc1cc(C[C@H](N)C(=O)O)cc(C)c1Oc1ccc(O)c(C(C)C)c1` [Dimethyl-isopropyl-T3 (DIMIT)]: the Kd in test [1] came out at 9.7 nM; in test [2] it was 9.8 nM.
